Laboratory results: paper PMC12295306, “Gut Microbial Postbiotics as Potential Therapeutics for Lymphoma: Proteomics Insights of the Synergistic Effects of Nisin and Urolithin B Against Human Lymphoma Cells” (International Journal of Molecular Sciences, 2025)

Columns and labels:
[1] = system: HKB-11 human lymphoma cells; assay: Alamar Blue antiproliferative assay, HKB-11; format: cell-based; details: HKB-11, 72 h, single postbiotics, GraphPad Prism nonlinear regression; for IC50: read-out: IC50 (concentration required to inhibit 50% of cell growth)
Method: The cell viability of the HKB-11, Hs 313.T, and HS-5 cells after treatment with different concentrations of the seven different postbiotics, including SCFA salts (magnesium acetate, sodium propionate, and sodium butyrate), UA and UB, purine nucleoside (inosine), and bacteriocin (N), was determined using the Alamar Blue assay as per the method described earlier. Briefly, 100 μL of cells was cultured in 96-well plates at a 3 × 10^5 cells/mL seeding density. After 24 h, the cells were treated with 16,000 µM of each postbiotic except for the urolithins, which were applied at 500 µM using a 1:2 serial dilution across a 10-point dose–response curve, followed by a 72 h incubation. A positive control using doxorubicin was prepared at a concentration of 4 μM, and an untreated control with 0.1% DMSO was added to every plate. At the end of the incubation period, the culture media were removed, and 100 μL of a 0.1 mg/mL Alamar Blue solution (resazurin, prepared as a stock solution at 1 mg/mL in freshly made PBS, followed by a 1:10 dilution with serum-free media) was added to each well. The fluorescence levels were assessed using a microplate spectrophotometer (BMG CLARIOstar, Mornington, VIC, Australia) with an excitation wavelength of 555 nm and emission measurement at 595 nm. The compounds were tested in triplicate, with the untreated control taken as 100% cell viability.
Data were collected and managed using MS Office Excel and GraphPad Prism for statistical analyses and visualisation. Data collection and analyses were carried out in triplicate, and the outcomes were presented as the mean ± standard deviation. Statistical significance between the mean values was determined at p ≤ 0.05 employing a two-way ANOVA. Tukey and Dunnett’s tests were utilised within GraphPad Prism software to perform nonlinear regression and multiple comparisons. Furthermore, GraphPad Prism software computed the IC50 value (representing the drug concentration required to achieve a 50% cell growth inhibition). The experimental groups in the proteomics study were compared statistically using unpaired t-tests, assuming equal variances. Candidate proteins were selected based on an absolute log2 fold change ≥ 0.58 and a Q-value ≤ 0.05. Enrichment analysis was subsequently conducted using Ingenuity Pathway Analysis (IPA), applying a significance threshold of adjusted Q ≤ 0.05 to identify functionally enriched pathways, focusing on those with an absolute z-score of ≥1.

HKB-11 lymphoma cells [2] = assay: ROS production, H2DCFDA assay; format: cell-based, human; details: 4 h
Method: Briefly, HKB-11 lymphoma cells (2.5 × 10^5 cells/mL) were cultured in a 96-well plate, allowed to adhere overnight, and treated with 20 μM H2DCFDA for 45 min to assess ROS levels. The dye solution was removed, and cells were washed with 1× buffer. Next, the cells were treated with N (8000 μM), N (4000 μM), UB (500 μM), UB (250 μM), N/UB (3500 μM), N/UB (1750 μM), N/UB (5750 μM), N/UB (2875 μM), Dox (4 μM), and tert-butyl hydroperoxide (TBHP) (150 μM) and then incubated at 37 °C for 4 h. Finally, the plate was immediately read at Ex/Em = 485/535 nm using a microplate spectrophotometer (BMG CLARIOstar, VIC, Australia). The fold change in ROS production was determined relative to the untreated control (cells treated with the supplement buffer according to the manufacturer’s protocol).

HKB-11 lymphoma cells [3] = assay: Flow cytometry apoptosis profile, Annexin V-CF Blue / 7-AAD; format: cell-based, human; details: HKB-11, 4 µM, 24 h; p ≤ 0.0001
Method: The HKB-11 cells were cultured in T75 cell culture flasks with an initial density of 1 × 10^6 cells per 10 mL at 37 °C in the presence of 5% CO2 for 24 h. The following day, the cell culture media was removed from each flask and replaced with fresh FBS-containing media. […] An FBS-containing medium was used as the untreated control. The flasks were then incubated at 37 °C with 5% CO2 for 24 h. Then, the cell culture media from each flask were collected. Subsequently, trypsin (0.25% w/v) was applied to the flasks for 4 min at 37 °C. The trypsin reaction was neutralised with an equal volume of 10% FBS serum-containing media, and the cells were combined with the previously collected media. The cell pellets were obtained by centrifuging at 500× g for 5 min at room temperature (RT). This procedure was repeated by suspending the cell pellets in 1 mL of PBS each time. The collected cell pellets from each treatment were immediately suspended in 500 μL of 1× binding buffer and gently mixed by pipetting. Annexin V-CF Blue (5 μL) and 7-AAD (5 μL) staining solutions were added to 100 μL of the cell suspension. The stained cells were incubated for 15 min in the dark at RT, after which 400 μL of a 1× assay buffer was added to each cell suspension. Subsequently, the cells were examined using a flow cytometer (Novocyte 3000, ACEA Biosciences Inc., San Diego, CA, USA), and data analysis and processing were performed using NovoExpress software (version 1.5.0, ACEA Biosciences Inc., CA, USA). In the initial step, the cells were gated on forward and side scatter modes to exclude cell aggregates and debris near the origin. The cells were then gated on dot plots, where Annexin V-CF in Pacific Blue was plotted against 7-AAD fluorescence in PerCP. Quadrants were positioned relative to the untreated control, indicating live cells ([…] and −7-AAD) appearing in the lower-left quadrant, early apoptotic cells (+Annexin V and −7-AAD) in the lower-right quadrant, late apoptotic cells (+Annexin V and +7-AAD) in the upper-right quadrant, and necrotic cells (−Annexin V and +7-AAD) in the upper-left quadrant. For statistical analyses and visualisation, the percentage data of cells in each quadrant after different treatments (n = 3) were exported to GraphPad Prism software (version 9.0, San Diego, CA, USA).

SMILES: CC(=O)[O-].CC(=O)[O-].[Mg+2] [Magnesium Acetate, magnesium acetate]
- IC50 (concentration required to inhibit 50% of cell growth) [1]: could not be calculated

SMILES: O=c1[nH]cnc2c1ncn2[C@@H]1O[C@H](CO)[C@@H](O)[C@H]1O [Inosine, inosine]
- IC50 (concentration required to inhibit 50% of cell growth) [1]: could not be calculated

SMILES: CC(C)(C)OO [TBHP, tert-butyl hydroperoxide, reference compound]
- ROS production (positive control) (HKB-11 lymphoma cells [2]; HKB-11, 150 μM): induced high ROS production

SMILES: CCC(=O)[O-].[Na+] [Sodium Propionate, sodium propionate]
- IC50 [1]: 14600 µM

SMILES: COc1cccc2c1C(=O)c1c(O)c3c(c(O)c1C2=O)C[C@@](O)(C(=O)CO)C[C@@H]3O[C@H]1C[C@H](N)[C@H](O)[C@H](C)O1 [Dox, doxorubicin, reference compound]
- ROS production (positive control) (HKB-11 lymphoma cells [2]; HKB-11, 4 μM): induced high ROS production
- Apoptosis induction (positive control) (HKB-11 lymphoma cells [3]): significantly induced apoptosis
- Necrotic cell death compared to the untreated control and other treatment groups (HKB-11 lymphoma cells [3]): markedly higher proportion of necrotic cell death

SMILES: CCCC(=O)[O-].[Na+] [Sodium Butyrate, sodium butyrate]
- IC50 [1]: 2020 µM

SMILES: O=c1oc2cc(O)ccc2c2ccc(O)cc12 [UA, Urolithin A]
- IC50 [1]: 384 µM
